Series [1] has as its system MUC1 antigen-specific T cells. Description: ELISPOT of MUC1 antigen-specific T cells in spleens of vaccinated HLA-A2 transgenic mice. Format: in vivo, HLA-A2 expressing transgenic mice (AAD mice). The conditions noted are these: for antigen strength (immune response): lipidated peptide in the micellar peptide antigen component of the R-DOTAP vaccine; for antigen delivery to dendritic cells and immune cell activation: FIGS. 4 and 5, anionic SSEEDE N-terminal extension, formulated with R-DOTAP nanoparticles and micellar mixture of six lipidated peptides. The method, then:
As illustrated in FIG. 4 HLA-A2 specific CD8 T cell responses to formulations including peptide antigen SSEEDE-C1A (SEQ ID NO:18) and SSEEDE-C2A (SEQ ID NO:19) formulated with R-DOTAP nanoparticles and a micellar mixture with six lipidated peptide agonist antigens, pC3A: (SEQ ID NO:15), pV1A: (SEQ ID NO:2), pV2A: (SEQ ID NO:3), pC5A: (SEQ ID NO:4), pC6A: (SEQ ID NO:5), pP93L: (SEQ ID NO: 16) were evaluated. […] The efficacy of these vaccine formulations in generating T cell responses was measured by dosing HLA-A2 expressing transgenic mice (AAD mice) with two 0.1 ml injections of the vaccine delivered subcutaneously on day 0 and day 7. Negative control groups mice were vaccinated with MUC1 peptides formulated in sucrose buffer. Immune responses specific to vaccine formulation were measured in an ELISPOT assay by enumerating MUC1 antigen-specific T cells, in triplicate wells, in the spleens obtained from vaccinated mice. Each bar in the graph represents the mean SFU per 250,000 splenocytes for a group of vaccinated mice. Error bars represent mean±SEM for five mice in each group. For identifying MUC1-specific T cells, splenocytes were stimulated with peptide sequences C1A (SEQ ID NO:9: YLAIVYLIAL), C2A (SEQ ID NO:10), V1A (SEQ ID NO:13), V2A (SEQ ID NO:14:) C3A (SEQ ID NO:12) and p93L (SEQ ID NO:11)
As shown in FIG. 5 HLA-A2 specific CD8 T cell responses to formulations including peptide antigen SSEEDE-C1A (SEQ ID NO:9) and SSEEDE-C2A ([…]) formulated with R-DOTAP nanoparticles and a micellar mixture with six lipidated peptide agonist antigens, pC3A: (SEQ ID NO:15), pV1A: (SEQ ID NO:2), pV2A: (SEQ ID NO:3), pC5A: (SEQ ID NO:4), pC6A: (SEQ ID NO:5), pP93L: (SEQ ID NO:16) were assessed. […] The efficacy of these vaccine formulations in generating T cell responses was measured by dosing HLA-A2 expressing transgenic mice (AAD mice) with two 0.1 ml injections of the vaccine delivered subcutaneously on day 0 and day 7. Negative control groups mice were vaccinated with MUC1 peptides formulated in sucrose buffer. Immune responses specific to vaccine formulation were measured in an ELISPOT assay by enumerating MUC1 antigen-specific T cells, in triplicate wells, in the spleens obtained from vaccinated mice. Each bar in the graph represents the mean SFU per 250,000 splenocytes for a group of vaccinated mice. Error bars represent mean±SEM for five mice in each group. For identifying MUC1-specific T cells, splenocytes were stimulated with peptide sequences C1A (SEQ ID NO:9: YLAIVYLIAL), C2A (SEQ ID NO:10), V1A (SEQ ID NO:13), V2A (SEQ ID NO:14) C3A (SEQ ID NO:12) and p93L (SEQ ID NO:11).
Control peptide antigen formulations were prepared with 0.5 ml of Montanide plus CpG, or “NCI adjuvant” formulation consisting of 50 μg/ml GM-CSF, 20 μg/ml IL-12, 0.8 mg/ml HBV core (128-140) peptide in incomplete Freund's adjuvant. The efficacy of these vaccine formulations in generating T cell responses was measured by dosing HLA-A2 expressing transgenic mice (AAD mice) with two 0.1 ml injections of the vaccine delivered subcutaneously on day 0 and day 7. Control group mice were vaccinated with MUC1 peptides formulated in sucrose buffer alone. Immune responses specific to vaccine formulation were measured in an ELISPOT assay by enumerating MUC1 antigen-specific T cells, in triplicate wells, in the spleens obtained from vaccinated mice. Each data point in the graph represents the mean SFU per 250,000 splenocytes in vaccinated mice. Error bars represent mean±SEM for five mice in each group. For identifying MUC1-specific T cells, splenocytes were stimulated with peptide sequences C1A (SEQ ID NO:9: YLAIVYLIAL).
Control peptide antigen formulations were prepared with 0.5 ml of Montanide plus CpG, or “NCI adjuvant” formulation consisting of 50 μg/ml GM-CSF, 20 μg/ml IL-12, 0.8 mg/ml HBV core (128-140) peptide in incomplete Freund's adjuvant. […]

Series [2] concerns HLA-A2, A3, A11 and A24. As to the kind of experiment: MHC-binding specificity of MUC1 peptide antigens (HLA binding / HLA affinity). The conditions noted are these: agonist sequence; HLA allele the peptide binds; listed as VIA. Also noted: species or system human. The text has this: Within the human mucin 1 oncoprotein multiple high affinity MHC-binding peptide antigens specific for HLA-A2, A3, A11 and A24 have been identified (Table 1). MHC-binding peptide antigens specific for HLA-A2 have been identified: YLAIVYLIAL (SEQ ID NO:9, C1A), YLIALAVCQV (SEQ ID NO:10, C2A), YLAPPAHGV (SEQ ID NO:13, VIA) and YLDTRPAPV (SEQ ID NO:14, V2A).

A short description of series [3]: Aqueous solubility of peptide antigens. The conditions noted are these: unmodified hydrophobic agonist peptides.
[4] abbreviates: FIG. 8, long peptide mixed with R-DOTAP.

Where no end group is shown, it is not given here.

Regarding “KSS-YLAPPAHGV (not fully specified; lipidated; SITE 1 Epsilon-palmitoyl modified residue) [pV1A, lipidated MUC1 agonist peptide]”, in series [1] (FIGS. 3 and 7), the “antigen strength (immune response)” value was “strong antigens”.

Take “KSS-YLDTRPAPV (not fully specified; lipidated; SITE 1 Epsilon-palmitoyl modified residue) [pV2A, lipidated MUC1 agonist peptide]”: the “antigen strength (immune response)” value in series [1] (FIGS. 3 and 7) was “strong antigens”. Take “SSEEDE-YLAIVYLIAL (SSEEDEYLAIVYLIAL) [SSEEDE-C1A, C1A with cleavable anionic N-terminal extension SSEEDE]”: in series [1], the “antigen delivery to dendritic cells and immune cell activation” value is given as “effective delivery”. On the same count and under the same terms, the entry for “SSEEDE-YLIALAVCQV (SSEEDEYLIALAVCQV) [SSEEDE-C2A, C2A with cleavable anionic N-terminal extension SSEEDE]” is “effective delivery”.

Turning to YLAIVYLIAL [C1A], the “C1A-specific T cell response (immunoactivity)” value in series [1] (FIG. 1, peptide inserted into lipid bilayer of R-DOTAP nanoparticle, two 0.1 ml s.c. injections day 0 and 7, splenocytes stimulated with C1A) is “effective immunoactivity”. The immune response entry is listed as “did generate a significant response” in series [1] (FIG. 8, short peptides encapsulated (incorporated into the R-DOTAP bilayer)) and “did not generate a significant response” in series [1] (FIG. 8, short peptides mixed with R-DOTAP). In addition, the “immune response (HLA-A2 specific CD8 T cell)” value in series [1] (FIGS. 3 and 7, peptides inserted into R-DOTAP nanoparticle lipid bilayer, with micellar lipidated V1A/V2A, 3 mg R-DOTAP per ml) was “strong immune responses”. Also, the “generation of immune responses” value in series [1] (peptide included in antigen mixtures mixed/formulated with R-DOTAP nanoparticles (not inserted in bilayer)) is “ordinarily inactive”. Take “YLAIVYLIALAVCQVRRKNYGQLDIFPARDKYHPMSEYAL [YL40]”: the “antigen specific responses to antigens C1A and C2A” value in series [1] (FIG. 6, long peptide with lipidated peptide micelles and 3 mg R-DOTAP in 1 ml) is listed as “strong antigen specific responses”. Besides, the “C1A response (activity)” value in series [1] (setting [4]) was “induces a significant C1A response”. The “C1A specific T-cell responses” value in series [1] (FIGS. 6 and 7, long peptide delivered with R-DOTAP nanoparticles) is “high level detection”. Regarding “YLAPPAHGV (not fully specified) [V1A, MUC1 agonist peptide antigen]”, the “HLA Binding” value in series [2] was “HLA-A2”. Besides, the “antigen strength (immune response)” value in series [1] (FIGS. 3 and 7) is given as “strong antigens”. As to “YLDTRPAPV (not fully specified) [V2A, MUC1 agonist peptide antigen]”, in series [1] (FIGS. 3 and 7), the “antigen strength (immune response)” value is “strong antigens”. For the substance YLIALAVCQV [C2A, YLIALAVCQV], the aqueous solubility result in series [3] was “limited aqueous solubility”. For “YLIALAVCQVRRKNYGQLDIFPARDKYHPMSEYAL- [YL35]”, in series [1] (setting [4]), the C2A response result is recorded as “did not generate a significant C2A response”.

The record behind these values is patent publication US20240317828A1, “T CELL ACTIVATING IMMUNOTHERAPEUTIC FOR TREATMENT OF MUCIN 1 PROTEIN EXPRESSING HUMAN CANCERS” (PDS BIOTECHNOLOGY CORPORATION, priority 2022, published 2024).
